These results are taken from US20230203098A1, “HUMAN TRANSFERRIN RECEPTOR BINDING PEPTIDE” (priority 2020, published 2023).

Where a SMILES comes first, the peptide text is derived from it. Bridges are numbered along the chain shown (N, C = ends). [ ]: non-standard residue; d: D form. PEG12 = NCCOCCOCCOCCOCCOCCOCCOCCOCCOCCOCCOCCOCCC(=O)O; Phe(3-OMe) = COc1cccc(C[C@H](N)C(=O)O)c1; Phe(4-F) = N[C@@H](Cc1ccc(F)cc1)C(=O)O; NMeY = CN[C@@H](Cc1ccc(O)cc1)C(=O)O; NMeF = CN[C@@H](Cc1ccccc1)C(=O)O; Abu = CC[C@H](N)C(=O)O

transferrin receptor (hTfR), sequence (P02786 whole entry): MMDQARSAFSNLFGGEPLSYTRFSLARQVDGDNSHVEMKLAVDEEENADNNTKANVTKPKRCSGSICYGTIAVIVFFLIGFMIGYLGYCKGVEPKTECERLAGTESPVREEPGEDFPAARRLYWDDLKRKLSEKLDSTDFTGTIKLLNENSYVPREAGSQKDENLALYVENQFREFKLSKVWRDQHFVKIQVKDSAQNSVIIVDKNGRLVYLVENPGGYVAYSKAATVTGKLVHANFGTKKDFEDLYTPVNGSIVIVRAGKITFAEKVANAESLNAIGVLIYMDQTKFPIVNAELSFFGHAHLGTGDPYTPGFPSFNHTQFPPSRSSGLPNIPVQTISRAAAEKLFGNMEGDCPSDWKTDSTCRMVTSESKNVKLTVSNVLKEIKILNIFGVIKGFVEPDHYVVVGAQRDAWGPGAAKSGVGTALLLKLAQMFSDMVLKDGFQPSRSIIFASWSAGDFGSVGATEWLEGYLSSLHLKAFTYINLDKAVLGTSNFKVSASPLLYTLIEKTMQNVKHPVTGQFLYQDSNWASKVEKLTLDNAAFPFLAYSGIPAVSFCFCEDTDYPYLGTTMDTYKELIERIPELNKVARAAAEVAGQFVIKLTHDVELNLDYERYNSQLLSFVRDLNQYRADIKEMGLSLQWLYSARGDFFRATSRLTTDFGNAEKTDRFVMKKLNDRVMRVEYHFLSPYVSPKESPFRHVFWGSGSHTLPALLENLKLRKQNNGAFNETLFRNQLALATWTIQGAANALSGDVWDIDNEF

In this assay the target is transferrin receptor (hTfR) (Homo sapiens, UniProt P02786). Kind of assay: Intermolecular interaction evaluation test between transferrin receptor (hTfR) and peptide by surface plasmon resonance (SPR). Type of assay: binding. The following applies: SPR; hTfR No. 894 variants with PEG12c linker (Table 2); read-out: KD. As to the method:
For each of the various synthesized peptides, the intermolecular interaction of the peptide with the transferrin receptor (hTfR) was tested by surface plasmon resonance (SPR) according to the following method. The specific test method is as follows.
An NTA sensor chip (Global Life Sciences Technologies Japan) was inserted in a Biacore T200 (Global Life Sciences Technologies Japan) and a prime operation was performed 3 times with a running buffer: 10 mM HEPES pH 8.0 (Nacalai Tesque), 150 mM NaCl (Nacalai Tesque), 0.05% Tween 20 (Nacalai Tesque), 0.1% BSA (Sigma-Aldrich), 1.0% DMSO (FUJIFILM Wako Pure Chemical) to create an Equilibration state at a flow rate of 30 µL/min. After reacting with 350 mM EDTA solution for 60 seconds at a flow rate of 10 µL/min then reacting with 0.5 mM NiCl2 solution (Kishida Chemical) for 60 seconds at a flow rate of 10 µL/min, the NTA sensor chip was washed with 3 mM EDTA solution (Nacalai Tesque) for 60 seconds at a flow rate of 10 µL/min. After mixing 50 µL each of 60 mM EDC solution (Global Life Sciences Technologies Japan) and 650 mM NHS solution (Global Life Sciences Technologies Japan), the mixture was reacted for 420 seconds at a flow rate of 10 µL/min. By diluting with the running buffer, 150 µL of 3.2 µM hTfR solution was prepared and used for reaction for 600 seconds at a flow rate of 10 µL/min, thereby immobilizing hTfR on the NTA sensor chip. After immobilization, capping was performed by reacting with 1.0 M ethanolamine aqueous solution (Global Life Sciences Technologies Japan) for 420 seconds at a flow rate of 10 µL/min. A peptide dissolution liquid prepared to 10 mM in the DMSO solution was diluted with the running buffer to a final concentration of 10 µM so as to become the peptide dissolution liquid, then peptide solutions of 100 nM, 50 nM, 25 nM, 10 nM and 5 nM were prepared. Kinetics of the peptide to hTfR was acquired by SPR measurement using the above-mentioned samples. Single-cycle kinetics was used as a kinetic evaluation model and curve fitting was performed using Biacore T200 Evaluation Software Version 3.0 (Global Life Sciences Technologies Japan). An obtained sensorgram was subjected to curve fitting using the least-squares method, and the binding of the peptide to hTfR was evaluated by obtaining KD values. […] A chemical structure of hTfR No. 894 is as follows.
The variant peptides were synthesized according to Example 1 unless otherwise stated in Example 9 or 10. The linker-added peptides were synthesized according to Example 1, except that Fmoc-NH-SAL-PEG resin (Watanabe Chemical Industries) was used as a resin for the peptide synthesis when the linker was PEG. The peptide, to which a peptide, a fatty acid, PEG, or a conjugate thereof is added as a linker, was also synthesized according to Example 1, unless otherwise stated in Example 9 or 10.
In general terms: In SPR one partner is held on a chip, and binding of the other changes the refractive index at the surface.
Consider `CC[C@@H]1NC(=O)CSC[C@@H](C(=O)NCCOCCOCCOCCOCCOCCOCCOCCOCCOCCOCCOCCOCCC(N)=O)NC(=O)[C@H](Cc2ccc(O)cc2)N(C)C(=O)[C@H](Cc2ccc(O)cc2)NC(=O)[C@H](CCCNC(=N)N)NC(=O)[C@H](CCCNC(=N)N)NC(=O)[C@H]([C@@H](C)CC)NC(=O)[C@H]([C@@H](C)CC)NC(=O)[C@H](Cc2ccc(O)cc2)NC(=O)[C@H](Cc2ccc(O)cc2)NC(=O)[C@H](CC(N)=O)NC(=O)[C@H](Cc2c[nH]c3ccccc23)NC(=O)[C@H](C(C)C)NC(=O)[C@H](Cc2ccccc2)N(C)C(=O)[C@H](C(C)C)NC1=O` [compound 111] ({CH2CO}-[Abu]V[NMeF]VWNYYIIRRY[NMeY]C[PEG12]-NH2; thioether N-15), for which the Kd was 1 to 100 nM. As to `CC[C@H](C)[C@@H]1NC(=O)[C@H](Cc2ccc(O)cc2)NC(=O)[C@H](Cc2ccc(O)cc2)NC(=O)[C@H](CC(N)=O)NC(=O)[C@H](Cc2c[nH]c3ccccc23)NC(=O)[C@H](C(C)C)NC(=O)[C@H](Cc2ccccc2)N(C)C(=O)[C@H](C(C)C)NC(=O)[C@H](C)NC(=O)CSC[C@@H](C(=O)NCCOCCOCCOCCOCCOCCOCCOCCOCCOCCOCCOCCOCCC(N)=O)NC(=O)[C@H](Cc2ccc(O)cc2)N(C)C(=O)[C@H](Cc2ccc(O)cc2)NC(=O)[C@H](CCCNC(=N)N)NC(=O)[C@H](CCCNC(=N)N)N(C)C(=O)[C@H]([C@@H](C)CC)NC1=O` [compound 112], the Kd was 1 to 100 nM. As to `CC[C@H](C)[C@@H]1NC(=O)[C@H](Cc2ccc(O)cc2)NC(=O)[C@H](Cc2ccc(O)cc2)NC(=O)[C@H](CC(N)=O)NC(=O)[C@H](Cc2cccc(OC)c2)NC(=O)[C@H](C(C)C)NC(=O)[C@H](Cc2ccccc2)N(C)C(=O)[C@H](C(C)C)NC(=O)[C@H](C)NC(=O)CSC[C@@H](C(=O)NCCOCCOCCOCCOCCOCCOCCOCCOCCOCCOCCOCCOCCC(N)=O)NC(=O)[C@H](Cc2ccc(O)cc2)N(C)C(=O)[C@H](Cc2ccc(O)cc2)NC(=O)[C@H](CCCNC(=N)N)NC(=O)[C@H](CCCNC(=N)N)NC(=O)[C@H]([C@@H](C)CC)NC1=O` [compound 113] ({CH2CO}-AV[NMeF]V[Phe(3-OMe)]NYYIIRRY[NMeY]C[PEG12]-NH2; thioether N-15), the equilibrium dissociation constant (Kd) was under 1 nM.

As to `CC[C@H](C)[C@@H]1NC(=O)[C@H](Cc2ccc(O)cc2)NC(=O)[C@H](Cc2ccc(O)cc2)NC(=O)[C@H](CC(N)=O)NC(=O)[C@H](Cc2c[nH]c3ccccc23)NC(=O)[C@H](C(C)C)NC(=O)[C@H](Cc2ccccc2)N(C)C(=O)[C@H](C(C)C)NC(=O)[C@H](C)NC(=O)CSC[C@@H](C(=O)NCCOCCOCCOCCOCCOCCOCCOCCOCCOCCOCCOCCOCCC(N)=O)NC(=O)[C@H](Cc2ccc(O)cc2)N(C)C(=O)[C@H](Cc2ccc(O)cc2)NC(=O)[C@H](CCCNC(=N)N)NC(=O)[C@H](CCCNC(=N)N)NC(=O)[C@H](Cc2ccc(O)cc2)NC1=O` [compound 115] ({CH2CO}-AV[NMeF]VWNYYIYRRY[NMeY]C[PEG12]-NH2; thioether N-15), the Kd is 1 to 100 nM. In the case of `CC[C@H](C)[C@@H]1NC(=O)[C@H](Cc2ccc(O)cc2)NC(=O)[C@H](Cc2ccc(O)cc2)NC(=O)[C@H](CC(N)=O)NC(=O)[C@H](Cc2c[nH]c3ccccc23)NC(=O)[C@H](C(C)C)NC(=O)[C@H](Cc2ccccc2)N(C)C(=O)[C@H](C(C)C)NC(=O)[C@H](C)NC(=O)CSC[C@@H](C(=O)NCCOCCOCCOCCOCCOCCOCCOCCOCCOCCOCCOCCOCCC(N)=O)NC(=O)[C@H](Cc2ccc(O)cc2)N(C)C(=O)[C@H](Cc2ccc(O)cc2)NC(=O)[C@@H](CCCNC(=N)N)NC(=O)[C@H](CCCNC(=N)N)NC(=O)[C@H]([C@@H](C)CC)NC1=O` [compound 116], the Kd lay in the range of 1 to 100 nM.

For the compound `CC[C@H](C)[C@@H]1NC(=O)[C@H](Cc2ccc(O)cc2)NC(=O)[C@H](Cc2ccc(O)cc2)NC(=O)[C@H](CC(N)=O)NC(=O)[C@H](Cc2c[nH]c3ccccc23)NC(=O)[C@H](C(C)C)NC(=O)[C@H](Cc2ccccc2)N(C)C(=O)[C@H](C(C)C)NC(=O)[C@H](C)NC(=O)CSC[C@@H](C(=O)NCCOCCOCCOCCOCCOCCOCCOCCOCCOCCOCCOCCOCCC(N)=O)NC(=O)[C@H](C)NC(=O)[C@H](Cc2ccc(O)cc2)NC(=O)[C@H](CCCNC(=N)N)NC(=O)[C@H](CCCNC(=N)N)NC(=O)[C@H]([C@@H](C)CC)NC1=O` [compound 117] ({CH2CO}-AV[NMeF]VWNYYIIRRYAC[PEG12]-NH2; thioether N-15), the Kd was 1 to 100 nM. Under `CC[C@H](C)[C@@H]1NC(=O)[C@H](Cc2ccc(O)cc2)NC(=O)[C@H](Cc2ccc(O)cc2)NC(=O)[C@H](CC(N)=O)NC(=O)[C@H](Cc2ccc(OC)cc2)NC(=O)[C@H](C(C)C)NC(=O)[C@H](Cc2ccccc2)N(C)C(=O)[C@H](C(C)C)NC(=O)[C@H](C)NC(=O)CSC[C@@H](C(=O)NCCOCCOCCOCCOCCOCCOCCOCCOCCOCCOCCOCCOCCC(N)=O)NC(=O)[C@H](Cc2ccc(O)cc2)N(C)C(=O)[C@H](Cc2ccc(O)cc2)NC(=O)[C@H](CCCNC(=N)N)NC(=O)[C@H](CCCNC(=N)N)NC(=O)[C@H]([C@@H](C)CC)NC1=O` [compound 118] ({CH2CO}-AV[NMeF]VY(Me)NYYIIRRY[NMeY]C[PEG12]-NH2; thioether N-15) stands 1 to 100 nM; under `CC[C@H](C)[C@@H]1NC(=O)[C@H](Cc2ccc(O)cc2)NC(=O)[C@H](Cc2ccc(O)cc2)NC(=O)[C@H](CC(N)=O)NC(=O)[C@H](Cc2ccc(F)cc2)NC(=O)[C@H](C(C)C)NC(=O)[C@H](Cc2ccccc2)N(C)C(=O)[C@H](C(C)C)NC(=O)[C@H](C)NC(=O)CSC[C@@H](C(=O)NCCOCCOCCOCCOCCOCCOCCOCCOCCOCCOCCOCCOCCC(N)=O)NC(=O)[C@H](Cc2ccc(O)cc2)N(C)C(=O)[C@H](Cc2ccc(O)cc2)NC(=O)[C@H](CCCNC(=N)N)NC(=O)[C@H](CCCNC(=N)N)NC(=O)[C@H]([C@@H](C)CC)NC1=O` [compound 119] ({CH2CO}-AV[NMeF]V[Phe(4-F)]NYYIIRRY[NMeY]C[PEG12]-NH2; thioether N-15), 1 to 100 nM.

Take `CC[C@H](C)[C@@H]1NC(=O)[C@H]([C@@H](C)CC)NC(=O)[C@H](Cc2ccc(O)cc2)N(C)C(=O)[C@H](Cc2ccc(O)cc2)NC(=O)[C@H](CC(N)=O)NC(=O)[C@H](Cc2c[nH]c3ccccc23)NC(=O)[C@H](C(C)C)NC(=O)[C@H](Cc2ccccc2)N(C)C(=O)[C@H](C(C)C)NC(=O)[C@H](C)NC(=O)CSC[C@@H](C(=O)NCCOCCOCCOCCOCCOCCOCCOCCOCCOCCOCCOCCOCCC(N)=O)NC(=O)[C@H](Cc2ccc(O)cc2)N(C)C(=O)[C@H](Cc2ccc(O)cc2)NC(=O)[C@H](CCCNC(=N)N)NC(=O)[C@H](CCCNC(=N)N)NC1=O` [compound 120]: the dissociation constant (Kd) lay in the range of 1 to 100 nM. Consider `CC[C@H](C)[C@@H]1NC(=O)[C@H](Cc2ccc(O)cc2)NC(=O)[C@H](Cc2ccc(O)cc2)NC(=O)[C@H](CC(N)=O)NC(=O)[C@H](Cc2c[nH]c3ccccc23)NC(=O)[C@H](C(C)C)NC(=O)[C@H](Cc2ccccc2)N(C)C(=O)[C@H](C(C)C)NC(=O)[C@H](C)NC(=O)CSC[C@@H](C(=O)NCCOCCOCCOCCOCCOCCOCCOCCOCCOCCOCCOCCOCCC(N)=O)NC(=O)[C@H](Cc2ccc(O)cc2)N(C)C(=O)[C@H](Cc2ccc(O)cc2)NC(=O)[C@H](CCCNC(=N)N)NC(=O)[C@H](Cc2ccc(O)cc2)NC(=O)[C@H]([C@@H](C)CC)NC1=O` [compound 121] ({CH2CO}-AV[NMeF]VWNYYIIYRY[NMeY]C[PEG12]-NH2; thioether N-15), for which the Kd was in the range of 1 to 100 nM. `CC[C@H](C)[C@@H]1NC(=O)[C@H](Cc2ccc(O)cc2)NC(=O)[C@H](Cc2ccc(O)cc2)NC(=O)[C@H](CC(N)=O)NC(=O)[C@H](Cc2cccc(F)c2)NC(=O)[C@H](C(C)C)NC(=O)[C@H](Cc2ccccc2)N(C)C(=O)[C@H](C(C)C)NC(=O)[C@H](C)NC(=O)CSC[C@@H](C(=O)NCCOCCOCCOCCOCCOCCOCCOCCOCCOCCOCCOCCOCCC(N)=O)NC(=O)[C@H](Cc2ccc(O)cc2)N(C)C(=O)[C@H](Cc2ccc(O)cc2)NC(=O)[C@H](CCCNC(=N)N)NC(=O)[C@H](CCCNC(=N)N)NC(=O)[C@H]([C@@H](C)CC)NC1=O` [compound 122]: the Kd was in the range of 1 to 100 nM.

As a reminder, the Kd is the concentration at which binding is half-saturated.
